This data set can be described thus: MTT cellular viability assay, 293. Conditions: human, 293 cells (human kidney epithelial cell line, ATCC CRL-1573), Example 7, FIG. 5, normal cell line 293. Format: cell-based.

Consider one compound from patent publication US7163919B2, “Anticancer composition” (priority 2002, dated 2007).

Turning to `CC(=O)O[C@H]1C(=O)[C@@]2(C)[C@H]([C@H](OC(=O)c3ccccc3)[C@]3(O)C[C@H](OC(=O)[C@H](O)[C@@H](NC(=O)c4ccccc4)c4ccccc4)C(C)=C1C3(C)C)[C@]1(OC(C)=O)CO[C@@H]1C[C@@H]2O` [TAXOL], the viability (usually the share of living cells, or the viability signal relative to a control) at 24 h fell in the range of 20 to 25%.
